In patent publication US20150322033A1, “ANTIBACTERIAL AGENT” (priority 2012, published 2015):
Where “and” joins values, the source holds several entries; their conditions need not be identical. Equal values may be shown once. Read-outs that look alike come from different tables or passages of the source.

Columns and labels:
GyrA(wt) + GyrB(wt) = biological target: T1, GyrA(wt) + GyrB(wt) (Staphylococcus aureus, UniProt P20831); assay: DNA cleavage assay with GyrA(wt) and GyrB(wt); type: biochemical
T1 construct: made in house; host or cells: E. coli BL21(DE3)
Text: The gene sequence encoding the wild-type GyrA of Staphylococcus aureus (henceforth also referred to as “GyrA(wt)”) shown as SEQ ID NO: 1 was cloned into the plasmid pMAL-c2 (produced by New England Biolabs) (the resultant is henceforth also referred to as “pMAL-c2-gyrA”).
The gene sequence encoding the wild-type GyrB of Staphylococcus aureus (henceforth also referred to as “GyrB(wt)”) shown as SEQ ID NO: 2 was cloned into the plasmid pMAL-c2 (produced by New England Biolabs) (the resultant is henceforth also referred to as “pMAL-c2-gyrB”).
(§1) E. coliBL21(DE3) (produced by Invitrogen) was transformed with pMAL-c2-gyrA mentioned above, with pMAL-c2-gyrB mentioned above, or with pMAL-c2-SAGAmut84 containing a mutant gyrA encoding the amino acid sequence of GyrA(wt) in which serine residue at the 84th position from the amino terminus is substituted with a leucine residue (see, Hiramatsu K., Igarashi M., Morimoto Y, Baba T., Umekita M., Akamatsu Y., Int. J. Antimicrob. Agents, 2012 June; 39(6), 478-85). To the culture medium of the resulting transformed Escherichia coli, 1 mM […] (produced by Wako Pure Chemical Industries) was added to induce expression of maltose-binding GyrA(wt), maltose-binding GyrB(wt), or maltose-binding mutant GyrA(S84L), and the bacterium was cultured overnight at 25° C. After completion of the culture, the cells were collected, and suspended in a buffer (20 mM Tris-HCl (pH 8.0), 200 mM sodium chloride, 1 mM ethylenediaminetetraacetic acid (EDTA), 1 mM dithiothreitol (DTT)), a protein extracting reagent (10× BugBuster (registered trademark), produced by Novagen) in a volume of 1/10 of the volume of the buffer, and 2.5 μL/10 mL of the buffer of Benzonase (registered trademark) nuclease (produced by Novagen) were added, the mixture was left standing at 25° C. for 30 minutes, and the cells were disrupted and lysed to obtain a disrupted cell suspension containing the maltose-binding GyrA(wt), maltose-binding GyrB(wt), or maltose-binding mutant GyrA(S84L).
(§2) Then, each disrupted cell suspension mentioned above was added to a column filled with an amylose resin covalently bound with maltose (produced by Novagen). A buffer (20 mM Tris-HCl (pH 8.0), 200 mM sodium chloride, 1 mM EDTA) containing 10 mM maltose was added to the column to elute the maltose-binding GyrA(wt), maltose-binding GyrB(wt), and maltose-binding mutant GyrA(S84L).
(§3) To each eluate, 4 units/1 mL of the eluate of protease (Factor Xa, produced by Amersham) was added, and the mixture was left standing at 25° C. for 3 hours and 30 minutes to cleave the maltose-binding proteins, GyrA(wt), GyrB(wt), and mutant GyrA(S84L) from the maltose-binding GyrA(wt), maltose-binding GyrB(wt), and maltose-binding mutant GyrA(S84L).
(§4) Then, GyrA(wt), GyrB(wt), and mutant GyrA(S84L) were concentrated by using an ultrafiltration unit (YM-50 Filter Unit, produced by Millipore).
(§5) The concentrated GyrA(wt), GyrB(wt), and mutant GyrA(S84L) were each suspended in a buffer (35 mM Tris-HCl (pH 7.5), 24 mM potassium chloride, 6 mM magnesium chloride, 1.8 mM spermidine, 0.36 mg/mL bovine serum albumin, 5 mM DTT, 50 volume % glycerol) at a concentration of 1 μg/μL for GyrA(wt), 2 μg/μL for GyrB(wt), or 1 μg/μL for mutant GyrA(S84L).
A substrate plasmid DNA, pTWV228 (0.4 μg, produced by Takara Bio), and levofloxacin (LVFX) or apigenin were added to a buffer (35 mM Tris-HCl (pH 7.5), 24 mM potassium chloride, 6 mM magnesium chloride, 1.8 mM spermidine, 0.36 mg/mL bovine serum albumin, 5 mM DTT), and 0.15 μL of the enzyme solution of GyrA(wt) and […] of the enzyme solution of GyrB(wt) were added to the mixture to prepare a reaction mixture in a total volume of 20
Levofloxacin was added at a final concentration of 0, 0.5, 1, 2, 4, 8, 16, or 32 μg/mL.
The aforementioned reaction solution was left standing at 25° C. for 30 minutes to allow the reaction. […]

GyrA(S84L) + GyrB(wt) = biological target: T2, GyrA(S84L) + GyrB(wt) (Staphylococcus aureus, UniProt P20831, S84L); assay: DNA cleavage assay with mutant GyrA(S84L) and GyrB(wt); type: biochemical
T2 construct: made in house; host or cells: E. coli BL21(DE3)
Text: as §1, §2, §3, §4, §5
An assay was performed in the same manner as that of the cleavage of the plasmid DNA with GyrA(wt) and GyrB(wt) mentioned above, provided that 0.15 μL of an enzyme solution of mutant GyrA(S84L) and 0.2 μL of the enzyme solution of GyrB(wt) were added instead of […] of the enzyme solution of GyrA(wt) and 0.2 μL of the enzyme solution of GyrB(wt). In FIGS. 3 and 4, the symbols “S”, “L”, and “N” have the same meanings as those explained for FIGS. 1 and 2.
IC50 value of levofloxacin or apigenin was also calculated from the visualized images shown in FIGS. 3 and 4 in the same manner as that used for the calculation using the results shown in FIGS. 1 and 2.
The DNA cleavage assay was performed with M-246 in the same manner as that used in Example 4.

Structure (SMILES)	Ratio of cleaved DNA (%) (GyrA(wt) + GyrB(wt); 2 μg/mL, Table 14)	Ratio of substrate plasmid DNA (%) (GyrA(wt) + GyrB(wt); 2 μg/mL, Table 14)	Ratio of cleaved DNA (%) (GyrA(wt) + GyrB(wt); 4 μg/mL, Table 14)	Ratio of substrate plasmid DNA (%) (GyrA(wt) + GyrB(wt); 4 μg/mL, Table 14)	Ratio of cleaved DNA (%) (GyrA(wt) + GyrB(wt); 8 μg/mL, Table 14)	Ratio of substrate plasmid DNA (%) (GyrA(wt) + GyrB(wt); 8 μg/mL, Table 14)	Ratio of cleaved DNA (%) (GyrA(wt) + GyrB(wt); 16 μg/mL, Table 14)	Ratio of substrate plasmid DNA (%) (GyrA(wt) + GyrB(wt); 16 μg/mL, Table 14)	Ratio of cleaved DNA (%) (GyrA(wt) + GyrB(wt); 32 μg/mL, Table 14)	Ratio of substrate plasmid DNA (%) (GyrA(wt) + GyrB(wt); 32 μg/mL, Table 14)	also measured
O=c1cc(-c2ccc(O)cc2)oc2cc(O)cc(O)c12 [No. 7, 4′,5,7-Trihydroxyflavone]	34	66	35	65	36	64	35	65	40	60	Ratio of cleaved DNA (%) (GyrA(wt) + GyrB(wt); 64 μg/mL, Table 14): 43%; Ratio of substrate plasmid DNA (%) (GyrA(wt) + GyrB(wt); 64 μg/mL, Table 14): 57%; inhibitory activity against the wild-type DNA gyrase (GyrA(wt) + GyrB(wt); FIG. 1 and 2): did not exhibit any inhibitory activity; IC50 (GyrA(wt) + GyrB(wt); IC50 (μg/mL) GyrA(wt) + GyrB(wt), Example 4, Table 14, from ratio of cleaved DNA): > 474 µM; IC50 (GyrA(wt) + GyrB(wt); IC50 GyrA(wt) and GyrB(wt), value in μM): > 474 µM; inhibitory activity against the mutant DNA gyrase (GyrA(S84L) + GyrB(wt); FIG. 3 and 4): concentration-dependent inhibitory activity; IC50 (GyrA(S84L) + GyrB(wt); IC50 (μg/mL) GyrA(S84L) + GyrB(wt), Example 4, Table 15, from ratio of cleaved DNA): ~29.6 µM and 29.6 µM; IC50 (GyrA(S84L) + GyrB(wt); IC50 mutant GyrA(S84L) and GyrB(wt), value in μM): ~29.6 µM
C[C@H]1COc2c(N3CCN(C)CC3)c(F)cc3c(=O)c(C(=O)O)cn1c23 [Levofloxacin, levofloxacin, reference compound]	58	42	61	39	64	36	70	30	67	33	Ratio of cleaved DNA (%) (GyrA(wt) + GyrB(wt); 0.5 μg/mL, Table 14): 32%; Ratio of substrate plasmid DNA (%) (GyrA(wt) + GyrB(wt); 0.5 μg/mL, Table 14): 68%; Ratio of cleaved DNA (%) (GyrA(wt) + GyrB(wt); 1 μg/mL, Table 14): 43%; Ratio of substrate plasmid DNA (%) (GyrA(wt) + GyrB(wt); 1 μg/mL, Table 14): 57%; Ratio of cleaved DNA (%) (GyrA(wt) + GyrB(wt); 4 μg/mL, Table 18): 73%; Ratio of substrate plasmid DNA (%) (GyrA(wt) + GyrB(wt); 4 μg/mL, Table 18): 27%; IC50 (GyrA(wt) + GyrB(wt); Example 4, Table 14, from ratio of cleaved DNA, read-out: IC50 (μg/mL) GyrA(wt) + GyrB(wt) (converted)): 5.53 µM; IC50 (GyrA(S84L) + GyrB(wt); Example 4, Table 15, from ratio of cleaved DNA, read-out: IC50 (μg/mL) GyrA(S84L) + GyrB(wt)): > 88.6 µM
